Data reported in PMC6155437 (Molecules : A Journal of Synthetic Chemistry and Natural …, 2017).
“Also recorded” adds a separate entry of the source.

What was measured:
Type in all cases: in vitro ADME
UGT1A1 = target: T1, UGT1A1 (Homo sapiens, UniProt P22309); experiment: UGT1A1 SN-38 glucuronidation inhibition in ultrapool human liver microsomes; details: at 50 µM
T1 construct: pooled human liver microsomes (0.2 mg/mL), 5 mM UDPGA; tissue Corning Life Sciences; host or cells: pooled human liver microsomes (150 donors)
T1 sequence (P22309 26-533): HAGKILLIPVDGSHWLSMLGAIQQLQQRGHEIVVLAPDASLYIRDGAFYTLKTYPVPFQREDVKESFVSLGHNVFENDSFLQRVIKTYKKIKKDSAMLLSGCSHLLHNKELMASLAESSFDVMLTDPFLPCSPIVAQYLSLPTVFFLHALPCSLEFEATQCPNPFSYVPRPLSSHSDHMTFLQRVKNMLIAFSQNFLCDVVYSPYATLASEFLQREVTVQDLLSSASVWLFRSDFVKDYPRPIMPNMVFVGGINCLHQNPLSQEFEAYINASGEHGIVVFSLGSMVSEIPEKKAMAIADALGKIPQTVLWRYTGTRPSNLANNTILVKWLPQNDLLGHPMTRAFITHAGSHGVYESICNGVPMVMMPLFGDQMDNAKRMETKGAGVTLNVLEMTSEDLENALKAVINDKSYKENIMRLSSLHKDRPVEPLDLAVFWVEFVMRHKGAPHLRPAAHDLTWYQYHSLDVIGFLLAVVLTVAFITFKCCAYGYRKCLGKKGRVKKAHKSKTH
Protocol: After 3 min of pre-incubation at 37 °C, the reactions were initiated by addition of UDPGA; incubation continued for 60 min at 37 °C in a shaking water bath. The reaction was stopped by placing the tubes on ice and adding 50 µL ice-cold acetonitrile containing internal standards (propofol glucuronide for chenodeoxycholic acid 24-acyl-β-glucuronide and mycophenolic acid glucuronide, and meloxicam for SN-38 glucuronide, trifluoperazine glucuronide, N-acetylserotonin β-D-glucuronide, and naloxone 3-β-D-glucuronide). The incubation mixtures were centrifuged (13,000× g, 4 min, 4 °C). All assays were performed in triplicate and average values were used in calculations.
The metabolites formed from the six UGT cocktail substrates were measured simultaneously using the LC-MS/MS method. The ESI source settings in both positive- and negative-ion modes for metabolite ionization were: capillary voltage, 4200 V; vaporizer temperature, 350 °C; capillary temperature, 330 °C; sheath gas pressure, 35 psi; and auxiliary gas pressure, 15 psi. […] Data were processed using Xcalibur software.
(§1) The apparent kinetic parameters for inhibitory potential (Ki and kinact values) and inhibition mode were estimated from the fitted curves using the Enzyme Kinetics program (ver. 1.1; Systat Software Inc., San Jose, CA, USA).

CYP1A2 = target: T2, CYP1A2 (Homo sapiens, UniProt P05177); experiment: CYP1A2 phenacetin O-deethylase inhibition in pooled human liver microsomes (substrate cocktail, LC-MS/MS); details: at 50 µM
T2 construct: pooled human liver microsomes (0.2 mg/mL); tissue Corning Life Sciences; host or cells: pooled human liver microsomes (150 donors)
T2 sequence (P05177 1-516): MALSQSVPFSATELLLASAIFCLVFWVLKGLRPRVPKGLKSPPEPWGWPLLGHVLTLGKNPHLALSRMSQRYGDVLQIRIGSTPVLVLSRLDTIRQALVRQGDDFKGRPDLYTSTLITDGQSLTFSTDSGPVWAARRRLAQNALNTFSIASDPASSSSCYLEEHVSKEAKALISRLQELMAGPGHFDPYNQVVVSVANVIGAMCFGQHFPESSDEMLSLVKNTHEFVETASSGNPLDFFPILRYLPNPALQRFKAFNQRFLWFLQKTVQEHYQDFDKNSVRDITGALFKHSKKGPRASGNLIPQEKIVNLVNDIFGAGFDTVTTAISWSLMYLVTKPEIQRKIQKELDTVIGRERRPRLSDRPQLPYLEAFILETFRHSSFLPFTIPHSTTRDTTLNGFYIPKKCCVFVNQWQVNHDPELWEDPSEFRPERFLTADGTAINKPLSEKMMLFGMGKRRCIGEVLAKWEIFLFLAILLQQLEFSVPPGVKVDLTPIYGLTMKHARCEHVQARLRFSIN
Protocol: (§2) After a 3-min pre-incubation at 37 °C, the reactions were initiated by addition of NADPH and incubation proceeded for 15 min at 37 °C in a shaking water bath. […] The incubation mixtures were centrifuged (13,000× g, 4 min, 4 °C). All assays were performed in triplicate and mean values were used in calculations.
(§3) Each reaction was initiated by adding the seven-CYP probe substrate cocktail.
The metabolites formed from CYP substrates were quantified simultaneously by a LC-MS/MS method described previously. The ESI source settings in positive-ion mode for metabolite ionization were: capillary voltage, 4200 V; vaporizer temperature, 350 °C; capillary temperature, 330 °C; sheath gas pressure, 35 psi; and auxiliary gas pressure, 15 psi. […] Analytical data were processed using Xcalibur software (version 2.1, Thermo Scientific).
as §1

CYP2C9 = target: T3, CYP2C9 (Homo sapiens, UniProt P11712); experiment: CYP2C9 diclofenac 4′-hydroxylase inhibition in human liver microsomes
T3 construct: tissue Corning Life Sciences; host or cells: pooled human liver microsomes (150 donors)
Protocol: as §2, §3
The reactions were initiated by addition of NADPH at 37 °C and stopped after 10 min by placing the incubation tubes on ice and adding 100 μL of ice-cold methanol containing an internal standard (d9-1-hydroxybufuralol). The incubation mixtures were centrifuged (13,000× g, 4 min, 4 °C) and then 50 μL of the supernatant was diluted with 50 μL of water. Aliquots (5 μL) of the diluted supernatants were analyzed by LC-MS/MS.
The metabolites formed from CYP substrates were quantified simultaneously by a LC-MS/MS method described previously. The ESI source settings in positive-ion mode for metabolite ionization were: capillary voltage, 4200 V; vaporizer temperature, 350 °C; capillary temperature, 330 °C; sheath gas pressure, 35 psi; and auxiliary gas pressure, 15 psi. Quantification was performed by selected reaction monitoring (SRM) of the [M + H]^+ ion and the related product ion for each metabolite: acetaminophen, 152.1 > 110.3; N-desethylamodiaquine, 328.1 > 283.0; 7-hydroxycoumarin, 163.0 > 107.2; 4-hydroxybupropion, 256.1 > 238.0; 4′-hydroxydiclofenac, 312.0 > 231.1; 4′-hydroxy-mephenytoin; 235.1 > 150.1; 1′-hydroxybufuralol, 278.1 > 186.1; 1′-hydroxymidazolam, 341.9 > 324.0; ^13C2,^15N-acetaminophen 155.1 > 111.2; and d9-1′-hydroxybufuralol, 287.2 > 187.0. Analytical data were processed using Xcalibur software (version 2.1, Thermo Scientific).
as §1

T3 sequence (P11712 whole entry): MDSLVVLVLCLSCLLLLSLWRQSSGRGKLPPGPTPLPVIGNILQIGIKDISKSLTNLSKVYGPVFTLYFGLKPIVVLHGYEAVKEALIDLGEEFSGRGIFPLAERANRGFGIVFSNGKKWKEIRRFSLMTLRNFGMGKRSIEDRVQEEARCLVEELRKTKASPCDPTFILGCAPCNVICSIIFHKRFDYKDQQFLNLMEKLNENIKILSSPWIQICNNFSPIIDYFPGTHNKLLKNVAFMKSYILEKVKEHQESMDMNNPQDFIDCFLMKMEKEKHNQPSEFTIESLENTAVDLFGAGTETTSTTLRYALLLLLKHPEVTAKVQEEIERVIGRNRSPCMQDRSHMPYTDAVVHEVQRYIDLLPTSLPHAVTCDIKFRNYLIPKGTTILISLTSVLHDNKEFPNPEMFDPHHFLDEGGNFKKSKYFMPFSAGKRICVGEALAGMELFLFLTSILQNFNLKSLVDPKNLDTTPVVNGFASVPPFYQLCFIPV

What does the source list for O=C(c1cccc2ccccc12)c1cn(CCCCCF)c2ccccc12 [AM-2201, 1-(5-fluoropentyl-1H-indol-3-yl)-(naphthalene-1-yl)methanone]?
inhibition of UGT1A1-catalyzed SN-38 glucuronidation (UGT1A1): negligibly inhibited; inhibition of CYP1A2-mediated phenacetin O-deethylation (CYP1A2): negligibly inhibited; Ki (CYP2C9): 3.9 µM; Inhibition Mode (CYP2C9; CYP2C9 diclofenac 4′-hydroxylation): competitively inhibited; also recorded: competitive; IC50 (CYP2C9; IC50 (μM) No Preincubation, Diclofenac 4′-hydroxylase, CYP2C9, human liver microsomes, 10 μM diclofenac): 11.9 µM; IC50 (CYP2C9; IC50 (μM) With Preincubation, Diclofenac 4′-hydroxylase, CYP2C9, 30 min preincubation with NADPH): 11.9 µM; IC50 (CYP2C9; IC50, CYP2C9-catalyzed diclofenac 4′-hydroxylation, abstract): 3.9 µM
